Assay results from ChEMBL document CHEMBL3885861, “Open TG-GATES”.

Species: Rattus norvegicus
Experiment: Open TG-GATES - Regimen: Single
Type: toxicity, organism-based, Sprague-Dawley
Set-up: regimen Single, gender Male, age 6 weeks
Details: in vivo, po, 2 mg/kg, route gavage, dose level Middle; for APTT / Bas / Eos / Fbg / Hb / Ht / Lym / MCH / MCHC / MCV / Mono / Neu / PT / Plat / RBC / Ret / WBC: tissue Blood; for KIDNEY_L / KIDNEY_R / KIDNEY_TOTAL: tissue Kidney; for LIVER: tissue Liver; for A/G / ALP / ALT / AST / BUN / CRE / Ca / Cl / DBIL / GLC / IP / K / LDH / Na / PL / RALB / TBIL / TC / TG / TP / gamma-GTP: tissue Plasma

O=NN(CCCl)C(=O)NC1CCCCC1 [LOMUSTINE]
TERMINAL_BW (3 h): 208.7 g
APTT (3 h): 16.4 s
Bas (3 h): 0%
Eos (3 h): 0.4%
Fbg (3 h): 227.8 mg/dL
Hb (3 h): 12.8 g/dL
Ht (3 h): 38.3%
Lym (3 h): 81.8%
MCH (3 h): 22.5 pg
MCHC (3 h): 33.4%
MCV (3 h): 67.4 fL
Mono (3 h): 7.2%
Neu (3 h): 10.2%
PT (3 h): 11.6 s
Plat (3 h): 102.8 x10_4/uL
RBC (3 h): 568.2 x10_4/ul
Ret (3 h): 9.5%
WBC (3 h): 127.7 x10_2/uL
KIDNEY_L (3 h): 0.9 g
KIDNEY_R (3 h): 1 g
KIDNEY_TOTAL (3 h): 1.9 g
LIVER (3 h): 10 g
A/G (3 h): 1.8
ALP (3 h): 890.2 IU/L
ALT (3 h): 35.6 IU/L
AST (3 h): 70.8 IU/L
BUN (3 h): 14.2 mg/dL
CRE (3 h): 0.5 mg/dL
Ca (3 h): 11.4 mg/dL
Cl (3 h): 104.8 meq/L
DBIL (3 h): 0.052 mg/dL
GLC (3 h): 187.6 mg/dL
IP (3 h): 9.9 mg/dL
K (3 h): 4.6 meq/L
LDH (3 h): 104.6 IU/L
Na (3 h): 139.4 meq/L
PL (3 h): 127.4 mg/dL
RALB (3 h): 3.5 g/dL
TBIL (3 h): 0.3 mg/dL
TC (3 h): 75.8 mg/dL
TG (3 h): 41.4 mg/dL
TP (3 h): 5.5 g/dL
gamma-GTP (3 h): 1.4 IU/L
TERMINAL_BW (6 h): 201.7 g
APTT (6 h): 16.8 s
Bas (6 h): 0%
Eos (6 h): 0.2%
Fbg (6 h): 217.4 mg/dL
Hb (6 h): 13.5 g/dL
Ht (6 h): 40.4%
Lym (6 h): 84.2%
MCH (6 h): 21.9 pg
MCHC (6 h): 33.4%
MCV (6 h): 65.6 fL
Mono (6 h): 4.2%
Neu (6 h): 11.4%
PT (6 h): 12.2 s
Plat (6 h): 103.8 x10_4/uL
RBC (6 h): 616.2 x10_4/ul
Ret (6 h): 9.4%
WBC (6 h): 137.8 x10_2/uL
KIDNEY_L (6 h): 1 g
KIDNEY_R (6 h): 1 g
KIDNEY_TOTAL (6 h): 1.9 g
LIVER (6 h): 8.7 g
A/G (6 h): 1.9
ALP (6 h): 941.6 IU/L
ALT (6 h): 33.6 IU/L
AST (6 h): 66.8 IU/L
BUN (6 h): 11.6 mg/dL
CRE (6 h): 0.5 mg/dL
Ca (6 h): 11 mg/dL
Cl (6 h): 104.2 meq/L
DBIL (6 h): 0.02 mg/dL
GLC (6 h): 187.6 mg/dL
IP (6 h): 10.8 mg/dL
K (6 h): 5 meq/L
LDH (6 h): 80.8 IU/L
Na (6 h): 141.2 meq/L
PL (6 h): 140 mg/dL
RALB (6 h): 3.5 g/dL
TBIL (6 h): 0.3 mg/dL
TC (6 h): 79.6 mg/dL
TG (6 h): 49.2 mg/dL
TP (6 h): 5.5 g/dL
gamma-GTP (6 h): 1.8 IU/L
TERMINAL_BW (9 h): 198 g
APTT (9 h): 17 s
Bas (9 h): 0%
Eos (9 h): 0.8%
Fbg (9 h): 226 mg/dL
Hb (9 h): 13.1 g/dL
Ht (9 h): 40.1%
Lym (9 h): 78.6%
MCH (9 h): 21.4 pg
MCHC (9 h): 32.7%
MCV (9 h): 65.6 fL
Mono (9 h): 6.2%
Neu (9 h): 14.6%
PT (9 h): 12.2 s
Plat (9 h): 103.3 x10_4/uL
RBC (9 h): 611.2 x10_4/ul
Ret (9 h): 8.8%
WBC (9 h): 71.6 x10_2/uL
KIDNEY_L (9 h): 0.9 g
KIDNEY_R (9 h): 0.9 g
KIDNEY_TOTAL (9 h): 1.8 g
LIVER (9 h): 8.4 g
A/G (9 h): 2.3
ALP (9 h): 731 IU/L
ALT (9 h): 28.6 IU/L
AST (9 h): 67.6 IU/L
BUN (9 h): 11 mg/dL
CRE (9 h): 0.5 mg/dL
Ca (9 h): 10.7 mg/dL
Cl (9 h): 105.4 meq/L
DBIL (9 h): 0.024 mg/dL
GLC (9 h): 191 mg/dL
IP (9 h): 10.8 mg/dL
K (9 h): 5 meq/L
LDH (9 h): 93.8 IU/L
Na (9 h): 139.4 meq/L
PL (9 h): 136.2 mg/dL
RALB (9 h): 3.9 g/dL
TBIL (9 h): 0.3 mg/dL
TC (9 h): 81.6 mg/dL
TG (9 h): 30.8 mg/dL
TP (9 h): 5.5 g/dL
gamma-GTP (9 h): 1.8 IU/L
TERMINAL_BW (24 h): 218.8 g
APTT (24 h): 16.9 s
Bas (24 h): 0%
Eos (24 h): 0.4%
Fbg (24 h): 207.4 mg/dL
Hb (24 h): 12.8 g/dL
Ht (24 h): 38.5%
Lym (24 h): 80.2%
MCH (24 h): 22.3 pg
MCHC (24 h): 33.3%
MCV (24 h): 67.1 fL
Mono (24 h): 7%
Neu (24 h): 12.6%
PT (24 h): 12.1 s
Plat (24 h): 96.4 x10_4/uL
RBC (24 h): 574.2 x10_4/ul
Ret (24 h): 9.1%
WBC (24 h): 121.6 x10_2/uL
KIDNEY_L (24 h): 1 g
KIDNEY_R (24 h): 1 g
KIDNEY_TOTAL (24 h): 2 g
LIVER (24 h): 11.1 g
A/G (24 h): 2.3
ALP (24 h): 839.8 IU/L
ALT (24 h): 38.8 IU/L
AST (24 h): 62.4 IU/L
BUN (24 h): 16.8 mg/dL
CRE (24 h): 0.5 mg/dL
Ca (24 h): 11.3 mg/dL
Cl (24 h): 104.4 meq/L
DBIL (24 h): 0.038 mg/dL
GLC (24 h): 195.8 mg/dL
IP (24 h): 8.7 mg/dL
K (24 h): 4.8 meq/L
LDH (24 h): 87.4 IU/L
Na (24 h): 137.8 meq/L
PL (24 h): 157.2 mg/dL
RALB (24 h): 4 g/dL
TBIL (24 h): 0.3 mg/dL
TC (24 h): 86.8 mg/dL
TG (24 h): 80.6 mg/dL
TP (24 h): 5.7 g/dL
gamma-GTP (24 h): 1.4 IU/L
